In patent publication US5308864A, “6-(hydronaphtyl-1-ethyl)-4-hydroxy-3,4,5,6-tetrahydro-2H-pyran-2-ones and the corresponding hydroxy acids” (British Bio-Technology Limited, priority 1989, dated 1994):

Assays:
[1] = system: cholesterol biosynthesis in Human hepatoma (HEP G2) cells; experiment: Assay for the inhibition of cholesterol biosynthesis in cultured cells (Test B, HEP G2); format: cell-based; conditions: 2-14C-acetate incorporation, HEP G2, 3 hours at 37° C.
Experimental: ASSAY FOR THE INHIBITION OF CHOLESTEROL BIOSYNTHESIS IN CULTURED CELLS
Human hepatoma (HEP G2) or fibroblastic (HES-9) cells were grown in Dulbecco's modified Eagle's medium (DMEM) with 10% foetal calf serum, in 6 cm tissue culture dishes until approaching confluence (approximately 4 days). The medium was changed to DMEM with 1% foetal calf serum 24 hours prior to experimentation.
Test compounds that are salts were dissolved in aqueous, physiological buffer. Lactones and esters were dissolved in dimethylsulphoxide.
Test compound were added to the cell monolayers concurrently with 2-^14 C-acetate (5 μCi/ml of incubation volume); control samples receiving vehicle together with radioisotope. The incubation was continued for 3 hours at 37° C.
The IC50 for inhibition of sterol synthesis by test compounds was measured from plots of % inhibition (compared to controls) versus log concentration, using at least 5 concentrations of inhibitor.
This assay, therefore, measures the ability of test substances to inhibit intracellular synthesis of cholesterol.

[2] = biological target: T1, HMG-CoA reductase (Rattus norvegicus, UniProt P51639); experiment: In vitro determination of inhibitory potential of HMG-CoA reductase inhibitors (Test A, rat liver microsomal enzyme); format: biochemical; conditions: HMG-CoA reductase from rat liver microsomes; inhibitors converted to sodium salts
T1 construct: from tissue; host or cells: rat liver microsomes (cholestyramine-induced)
T1 sequence (P51639 1-887): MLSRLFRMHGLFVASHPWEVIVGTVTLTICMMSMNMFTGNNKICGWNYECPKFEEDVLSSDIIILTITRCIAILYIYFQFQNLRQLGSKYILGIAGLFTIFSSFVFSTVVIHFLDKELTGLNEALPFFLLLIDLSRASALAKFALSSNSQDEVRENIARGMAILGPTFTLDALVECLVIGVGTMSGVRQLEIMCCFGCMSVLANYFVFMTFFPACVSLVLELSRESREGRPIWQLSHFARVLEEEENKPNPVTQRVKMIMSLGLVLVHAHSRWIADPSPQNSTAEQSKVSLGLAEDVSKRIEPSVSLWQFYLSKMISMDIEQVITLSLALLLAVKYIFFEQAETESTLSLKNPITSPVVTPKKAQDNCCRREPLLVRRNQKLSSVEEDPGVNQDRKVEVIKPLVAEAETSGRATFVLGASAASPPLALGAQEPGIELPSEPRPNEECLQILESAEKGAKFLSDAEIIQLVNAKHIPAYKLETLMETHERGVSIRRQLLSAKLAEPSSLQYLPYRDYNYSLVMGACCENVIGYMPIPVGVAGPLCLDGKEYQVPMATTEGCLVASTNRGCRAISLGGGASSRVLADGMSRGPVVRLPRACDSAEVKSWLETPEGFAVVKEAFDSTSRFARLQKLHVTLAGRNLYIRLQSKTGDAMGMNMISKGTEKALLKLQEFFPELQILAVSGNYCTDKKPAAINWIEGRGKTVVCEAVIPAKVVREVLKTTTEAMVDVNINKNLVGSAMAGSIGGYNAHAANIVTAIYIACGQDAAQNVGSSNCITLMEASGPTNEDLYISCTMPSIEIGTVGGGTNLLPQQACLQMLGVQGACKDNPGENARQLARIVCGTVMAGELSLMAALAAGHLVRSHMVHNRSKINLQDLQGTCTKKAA
Experimental: HMG-CoA reductase was induced in rats by feeding a normal diet supplemented with 3% cholestyramine resin for one week prior to sacrifice. […] Briefly, the livers were immediately placed in ice-cold buffer I (see below) and homogenised in a Potter-Elvehjem type glass/TEFLON homogeniser (10 passes at 1000 rpm). […] The supernatant was centrifuged at 100,000×g for 75 minutes, the microsomal pellet resuspended in buffer II (see below) and centrifuged at 100,000×g for 75 minutes. The resultant pellet was stored at -70° C. until required for assay purposes.
Membrane bound enzyme isolated as above is used for determining the activity of inhibitors. The assay is performed in a total volume of 300 μl in 100 mM KPO4 pH 7.2 buffer, containing 3 mM MgCl2, 5 mM glucose-6-phosphate, 10 mM reduced glutathione, 1mM NADP, 1 unit glucose-6-phosphate dehydrogenase, and 1 mg/ml BSA, with resuspended enzyme. Putative inhibitors are converted to sodium salts, then dissolved in dimethylsulphoxide and 10 μl aliquots added to the incubation.
The assay is pre-incubated at 37° C. for 10 minutes and initiated by the addition of 0.1 μCi 3-hydroxy-3-methyl-[3-^14 C]glutaryl coenzyme A (52 Ci/Mole) followed by incubating the complete reaction at 37° C. for 10 minutes. At the end of this period the reaction is stopped by adding 300 μl of a 10 mM mevalonolactone solution in 0.1 M hydrochloric acid and the mevalonic acid product allowed to lactonise for a further period of 30 minutes. The product is then isolated by chromatography using Bio-Rex 5 resin and the enzyme activity quantified by liquid scintillation spectrophotometry.
Appropriate controls are included in the assay and IC50 values obtained by graphical means.

[3] = HepG2, inhibition of sterol synthesis

Row | IC50 [2] | SMILES | IC50 ([1]; HepG2, after hydrolysis, inhibition of sterol synthesis) | IC50 [1, 3]
1 | – | C/C=C/[C@@H]1C[C@H](OC(=O)[C@@H](C)CC)[C@@H]2[C@@H](CC[C@@H]3C[C@@H](O)CC(=O)O3)[C@@H](C)C=C[C@H]2C1 [Compound G, (1S,2S,4aR,6S,8S,8aS,4'R,6'R,2"S)6'-{2-(1,2,4a,5,6,7,8,8a-octahydro-2-methyl-8[(2"-methyl-1"-oxobutyl)oxy]-6-[(E)-prop-1-enyl]-1-naphthalenyl)ethyl}-tetrahydro-4'-hydroxy-2H-pyran-2'-one] | 25 nM | –
2 | 15 nM | C/C=C\[C@@H]1C[C@H](OC(=O)[C@@H](C)CC)[C@@H]2[C@@H](CC[C@@H](O)C[C@@H](O)CC(=O)O)[C@@H](C)C=C[C@H]2C1 [Compound B, Sodium (1S,2S,4aR,6S,8S,8aS,3'R,5'R,2"S)-7'-(1,2,4a, 5,6,7,8,8a-octahydro-2-methyl-8[(2"-methyl-1"-oxobutyl)oxy]-6-[(Z)-prop-1-enyl]-1-naphthalenyl)-3',5'-dihydroxyheptanoate] | – | 60 nM
3 | 30 nM | CC[C@H](C)C(=O)O[C@H]1C[C@@H](C)C[C@@H]2C=C[C@H](C)[C@H](CC[C@@H]3C[C@@H](O)CC(=O)O3)[C@@H]12 [Dihydromevinolin, reference compound] | – | 40 nM
4 | 3 nM | C/C=C/[C@@H]1C[C@H](OC(=O)C(C)(C)CC)[C@@H]2[C@@H](CC[C@@H](O)C[C@@H](O)CC(=O)O)[C@@H](C)C=C[C@H]2C1 [Compound N, Sodium (1S,2S,4aR,6S,8S,8aS,3'R,5'R)-7'-(1,2,4a,5,6,7,8,8a-octahydro-2-methyl-8-[(2"-dimethyl-1"-oxobutyl)oxy]-6-[(E)-prop-1enyl]-1-naphthalenyl)-3',5'-dihydroxyheptanoate] | – | 7 nM
